Assay results: the METLIN SMRT retention time set (Domingo-Almenara et al. 2019)

Experiment: gradient 5% acetonitrile 3 min, to 50% in 2 min, to 85% in 15 min, held 3 min, 100 µL/min
Settings: column: Zorbax Extend-C18 2.1 x 50 mm; eluents: water / acetonitrile, 0.1% formic acid
Method in brief: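 Retention times come from adduct peaks that were picked computationally and then checked by hand. The standards, pure and pooled in mixtures of ~100 molecules, were run on a Zorbax Extend-C18 column (2.1 × 50 mm, 1.8 μm) at 100 μL/min with water and acetonitrile, each with 0.1% formic acid. Detection was by quadrupole time-of-flight mass spectrometry in positive and negative ionization mode, with a dead volume of 40 μL and a dwell volume of 900 μL.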

Work on `CC(C)(C)c1ccc(-c2nc(C3CC(=O)N(c4ccc(Cl)cc4)C3)no2)cc1` (configuration not stated) yielded an RP-LC retention time of 861 s.
With `Cc1nc2c(NC(=O)COc3ccc(F)c(F)c3)cccn2n1` the RP-LC retention time was 818 s.
For `CCN(CC)c1nc2cc(C(=O)NCc3ccc(C)o3)ccc2c(=O)n1-c1ccccc1`, the RP-LC retention time was 1020 s.
In the case of `CN(C)C(=O)CCc1ccc2c(c1)CN(C(=O)CC1CCCC1)CCO2`, the RP-LC retention time is reported as 781 s.
`O=C(Cn1c(=O)c2nncn2c2ncccc21)N1CCN(c2cccc(Cl)c2)CC1` showed an RP-LC retention time of 750 s.
Work on `CCCCN1CCCC1CNC(=O)c1cc(C#N)c2ccccc2c1OC` (configuration not stated) yielded an RP-LC retention time of 781 s.
Compound `Cc1cc(=O)n(CC(=O)N(C)c2ccccc2)c(N2CCOCC2)n1` has an RP-LC retention time of 657 s.
Compound `COCCC(=O)N1CCCn2cc(-c3cccc(C#N)c3)nc21` has an RP-LC retention time of 639 s.
For `COC(=O)c1ncn2c1C(=O)N(Cc1cccc(Br)c1)C(C)(C(=O)NC1CCCC1)C2` (configuration not stated), the RP-LC retention time was 764 s.
`O=C(Cn1ccnc1)N1CCCC(OCc2nc(C3CC3)no2)C1` (configuration not stated) showed an RP-LC retention time of 580 s.
Compound `Cc1cc(N(C)C)n2nc(-c3ccc(Cl)cc3)c(C)c2n1` has an RP-LC retention time of 744 s.
Work on `CCc1cc(C(=O)Nc2ccc(F)cc2C)nc2ccnn12` yielded an RP-LC retention time of 1140 s.
`Cc1ccc(C)c(N2CCN(C(=O)c3c(C)oc4nc(C)nc(N5CCOCC5)c34)CC2)c1` gave an RP-LC retention time of 1020 s.
With `O=C(Nc1ccc(F)c(F)c1)C1CCc2nc(N3CCOCC3)ncc2C1` (configuration not stated) the RP-LC retention time was 742 s.
`N#Cc1cccc(C(=O)NC2(c3nc(-c4ccncc4)no3)CCCCC2)c1` showed an RP-LC retention time of 875 s.
`O=C(Nc1ccc(OCc2nnc(-c3ccccc3)o2)cc1)c1ccnc(Cl)c1` showed an RP-LC retention time of 908 s.
In the case of `Cn1nnc2cc(-c3noc(C4CC(=O)N(c5ccccc5)C4)n3)ccc21` (configuration not stated), the RP-LC retention time is reported as 788 s.
For `Cc1ccc(-c2nc(N)n(C(=O)c3ccc(C(C)(C)C)cc3)n2)cc1`, the RP-LC retention time was 1280 s.
For `Cc1ccc(C)c(-c2cc3c(=O)n(Cc4nc(-c5ccc(Br)cc5)no4)ncn3n2)c1`, the RP-LC retention time was 1320 s.
In the case of `COCCN1CCn2cc(S(=O)(=O)Nc3ccc(OC)c(Cl)c3)cc2C1=O`, the RP-LC retention time is reported as 726 s.
Work on `CC(=O)Nc1ccc(Br)cc1` yielded an RP-LC retention time of 680 s.
With `CN[C@@H](C)C(=O)N[C@H](C(=O)N1CCC[C@H]1c1nc(C(=O)c2ccc(F)cc2)cs1)C1CCCCC1` the RP-LC retention time was 787 s.
Work on `Cc1ccc(C)c(N2CCN(c3ccnc(SCC(=O)NCCCc4ccccc4)n3)CC2)c1` yielded an RP-LC retention time of 1060 s.
In the case of `CSc1ccc(CNC(=O)c2nnn3c2COC(c2ccc(F)cc2)C3)cc1` (configuration not stated), the RP-LC retention time is reported as 980 s.
Compound `CC(C)(CO)NC(=O)Cc1ccc(NS(=O)(=O)/C=C/c2ccccc2)cc1` has an RP-LC retention time of 686 s.
Work on `Cc1ccc(-n2ncc3c(=O)n(Cc4nc(-c5ccc(F)c(Br)c5)no4)cnc32)cc1` yielded an RP-LC retention time of 1220 s.
For `Cc1ccc(Cn2c(=O)n(CCNC(=O)CC(C)(C)C)c3ncccc32)cc1`, the RP-LC retention time was 855 s.
Work on `CCOC(=O)C1CCCN(CC(=O)Nc2nc(-c3ccccc3)cs2)C1` (configuration not stated) yielded an RP-LC retention time of 690 s.
`CCOC(=O)c1c(C)oc2nc(C)nc(NCCCN(CC)c3ccccc3)c12` showed an RP-LC retention time of 825 s.
Compound `Cc1cc2c(c(=O)n(-c3ccc(F)cc3)c(=O)n2CC(=O)Nc2cccc(C(F)(F)F)c2)n1C` has an RP-LC retention time of 933 s.
`Cc1c(C(=O)NC(C)C)cnn1-c1cc(-c2nc(C(C)C)no2)ccn1` gave an RP-LC retention time of 868 s.
With `CCn1cnc(S(=O)(=O)N2CCCC(C(=O)NCCN3CCCCCC3)C2)c1` (configuration not stated) the RP-LC retention time was 583 s.
`O=C(Nc1nnc(-c2ccco2)o1)c1ccc2c(c1)CCCC2` gave an RP-LC retention time of 775 s.
With `Cc1ccn2cc(-c3ccc(NC(=O)c4ccco4)cc3)nc2n1` the RP-LC retention time was 596 s.
Work on `Cn1nccc1-c1csc(S(=O)(=O)NC2CC2)c1` yielded an RP-LC retention time of 713 s.
`CC(NC(=O)c1ccc(-c2ccnc(N3CCCC3)n2)cc1)c1cccnc1` (configuration not stated) showed an RP-LC retention time of 586 s.
`COc1cc(OC)c(NC(=O)CN2C(=O)CN(C)C(=O)c3ccccc32)cc1Cl` gave an RP-LC retention time of 719 s.
